From patent US5234907A, “Synthetic vasoactive intestinal peptide analogs” (Hoffmann-La Roche Inc., priority 1991, dated 1993) come the findings set out here.

For assay [1], the system named is guinea pig tracheal smooth muscle. Nature of the assay: Tracheal relaxant activity of VIP analogs on isolated guinea pig tracheal rings. The note with it: cumulative concentration response; responses as % of maximum response to VIP (10^-6 M=100%); at least three tissues pooled; linear regression. It is filed as cell-based.
Another assay has as its system guinea pigs. Nature of the assay: In vivo bronchodilator activity by tracheal instillation against histamine-induced bronchoconstriction. Further details: species or system guinea pig. The note with it: 100 μl, anesthetized male Hartley guinea pigs, histamine challenge 50 μg/kg i.v., inhibition of tracheal pressure increase.

[ ]: non-standard residue; d: D form. Phe(4-NH2) = Nc1ccc(C[C@H](N)C(=O)O)cc1; NMeA = CN[C@@H](C)C(=O)O; Nle = CCCC[C@H](N)C(=O)O

Consider “Ac--[Lys^12, Nle^17, Ala^19, Val^26, Thr^28, Gly^29, Lys^30 ]--VIP (Ac-HSDAVFTDNYTKLRKQ[Nle]AAKKYLNSVLTGK-NH2; SMILES CCCC[C@H](NC(=O)[C@H](CCC(N)=O)NC(=O)[C@H](CCCCN)NC(=O)[C@H](CCCNC(=N)N)NC(=O)[C@H](CC(C)C)NC(=O)[C@H](CCCCN)NC(=O)[C@@H](NC(=O)[C@H](Cc1ccc(O)cc1)NC(=O)[C@H](CC(N)=O)NC(=O)[C@H](CC(=O)O)NC(=O)[C@@H](NC(=O)[C@H](Cc1ccccc1)NC(=O)[C@@H](NC(=O)[C@H](C)NC(=O)[C@H](CC(=O)O)NC(=O)[C@H](CO)NC(=O)[C@H](Cc1c[nH]cn1)NC(C)=O)C(C)C)[C@@H](C)O)[C@@H](C)O)C(=O)N[C@@H](C)C(=O)N[C@@H](C)C(=O)N[C@@H](CCCCN)C(=O)N[C@@H](CCCCN)C(=O)N[C@@H](Cc1ccc(O)cc1)C(=O)N[C@@H](CC(C)C)C(=O)N[C@@H](CC(N)=O)C(=O)N[C@@H](CO)C(=O)N[C@H](C(=O)N[C@@H](CC(C)C)C(=O)N[C@H](C(=O)NCC(=O)N[C@@H](CCCCN)C(N)=O)[C@@H](C)O)C(C)C) [Ac--(SEQ ID NO: 11)--NH2]”, for which the half-maximal effective concentration (EC50) in assay [1] is 0.58 nM. In addition, the “Bronchodilator activity in guinea pigs, ED50” value (“Bronchodilator activity” for short) with guinea pigs worked out at 0.58 µg.
Taken in the same sequence, the figures for “Ac--[Glu^8, Lys^12, Nle^17, Ala^25, Leu^26, Lys^27,28, Gly^29,30, Thr^31 ]--VIP (Ac-HSDAVFTENYTKLRKQ[Nle]AVKKYLNALKKGGT-NH2; SMILES CCCC[C@H](NC(=O)[C@H](CCC(N)=O)NC(=O)[C@H](CCCCN)NC(=O)[C@H](CCCNC(=N)N)NC(=O)[C@H](CC(C)C)NC(=O)[C@H](CCCCN)NC(=O)[C@@H](NC(=O)[C@H](Cc1ccc(O)cc1)NC(=O)[C@H](CC(N)=O)NC(=O)[C@H](CCC(=O)O)NC(=O)[C@@H](NC(=O)[C@H](Cc1ccccc1)NC(=O)[C@@H](NC(=O)[C@H](C)NC(=O)[C@H](CC(=O)O)NC(=O)[C@H](CO)NC(=O)[C@H](Cc1c[nH]cn1)NC(C)=O)C(C)C)[C@@H](C)O)[C@@H](C)O)C(=O)N[C@@H](C)C(=O)N[C@H](C(=O)N[C@@H](CCCCN)C(=O)N[C@@H](CCCCN)C(=O)N[C@@H](Cc1ccc(O)cc1)C(=O)N[C@@H](CC(C)C)C(=O)N[C@@H](CC(N)=O)C(=O)N[C@@H](C)C(=O)N[C@@H](CC(C)C)C(=O)N[C@@H](CCCCN)C(=O)N[C@@H](CCCCN)C(=O)NCC(=O)NCC(=O)N[C@H](C(N)=O)[C@@H](C)O)C(C)C) [Ac--(SEQ ID NO: 16)--NH2]” were 0.27 nM and 0.043 µg.
As for “Ac--[N--Me--Ala^1, Lys^12, Nle^17, Val^26, Thr^28 ]--VIP (Ac-[NMeA]SDAVFTDNYTKLRKQ[Nle]AVKKYLNSVLT-NH2; SMILES CCCC[C@H](NC(=O)[C@H](CCC(N)=O)NC(=O)[C@H](CCCCN)NC(=O)[C@H](CCCNC(=N)N)NC(=O)[C@H](CC(C)C)NC(=O)[C@H](CCCCN)NC(=O)[C@@H](NC(=O)[C@H](Cc1ccc(O)cc1)NC(=O)[C@H](CC(N)=O)NC(=O)[C@H](CC(=O)O)NC(=O)[C@@H](NC(=O)[C@H](Cc1ccccc1)NC(=O)[C@@H](NC(=O)[C@H](C)NC(=O)[C@H](CC(=O)O)NC(=O)[C@H](CO)NC(=O)[C@H](C)N(C)C(C)=O)C(C)C)[C@@H](C)O)[C@@H](C)O)C(=O)N[C@@H](C)C(=O)N[C@H](C(=O)N[C@@H](CCCCN)C(=O)N[C@@H](CCCCN)C(=O)N[C@@H](Cc1ccc(O)cc1)C(=O)N[C@@H](CC(C)C)C(=O)N[C@@H](CC(N)=O)C(=O)N[C@@H](CO)C(=O)N[C@H](C(=O)N[C@@H](CC(C)C)C(=O)N[C@H](C(N)=O)[C@@H](C)O)C(C)C)C(C)C) [Ac--(SEQ ID NO: 88)--NH2]”, the half-maximal effective concentration (EC50) in assay [1] is 7.2 nM. Moreover, the “Bronchodilator activity” value with guinea pigs worked out at 8.5 µg.
In assay [1], “Ac--[Ala^2, Lys^12, Nle^17, Ala^25, Leu^26, Lys^27,28, Gly^29,30, Thr^31 ]--VIP (Ac-HADAVFTDNYTKLRKQ[Nle]AVKKYLNALKKGGT-NH2; SMILES CCCC[C@H](NC(=O)[C@H](CCC(N)=O)NC(=O)[C@H](CCCCN)NC(=O)[C@H](CCCNC(=N)N)NC(=O)[C@H](CC(C)C)NC(=O)[C@H](CCCCN)NC(=O)[C@@H](NC(=O)[C@H](Cc1ccc(O)cc1)NC(=O)[C@H](CC(N)=O)NC(=O)[C@H](CC(=O)O)NC(=O)[C@@H](NC(=O)[C@H](Cc1ccccc1)NC(=O)[C@@H](NC(=O)[C@H](C)NC(=O)[C@H](CC(=O)O)NC(=O)[C@H](C)NC(=O)[C@H](Cc1c[nH]cn1)NC(C)=O)C(C)C)[C@@H](C)O)[C@@H](C)O)C(=O)N[C@@H](C)C(=O)N[C@H](C(=O)N[C@@H](CCCCN)C(=O)N[C@@H](CCCCN)C(=O)N[C@@H](Cc1ccc(O)cc1)C(=O)N[C@@H](CC(C)C)C(=O)N[C@@H](CC(N)=O)C(=O)N[C@@H](C)C(=O)N[C@@H](CC(C)C)C(=O)N[C@@H](CCCCN)C(=O)N[C@@H](CCCCN)C(=O)NCC(=O)NCC(=O)N[C@H](C(N)=O)[C@@H](C)O)C(C)C) [Ac--(SEQ ID NO: 20)--NH2]” displayed a concentration for a half-maximal effect (EC50) of 0.44 nM. Besides, the “Bronchodilator activity” value in the assay on guinea pigs came to 0.05 µg.
The matching figures for “Ac--[p-NH2 --Phe^10, Lys^12, Nle^17, Val^26, Thr^28 ]--VIP (Ac-HSDAVFTDN[Phe(4-NH2)]TKLRKQ[Nle]AVKKYLNSVLT-NH2; SMILES CCCC[C@H](NC(=O)[C@H](CCC(N)=O)NC(=O)[C@H](CCCCN)NC(=O)[C@H](CCCNC(=N)N)NC(=O)[C@H](CC(C)C)NC(=O)[C@H](CCCCN)NC(=O)[C@@H](NC(=O)[C@H](Cc1ccc(N)cc1)NC(=O)[C@H](CC(N)=O)NC(=O)[C@H](CC(=O)O)NC(=O)[C@@H](NC(=O)[C@H](Cc1ccccc1)NC(=O)[C@@H](NC(=O)[C@H](C)NC(=O)[C@H](CC(=O)O)NC(=O)[C@H](CO)NC(=O)[C@H](Cc1c[nH]cn1)NC(C)=O)C(C)C)[C@@H](C)O)[C@@H](C)O)C(=O)N[C@@H](C)C(=O)N[C@H](C(=O)N[C@@H](CCCCN)C(=O)N[C@@H](CCCCN)C(=O)N[C@@H](Cc1ccc(O)cc1)C(=O)N[C@@H](CC(C)C)C(=O)N[C@@H](CC(N)=O)C(=O)N[C@@H](CO)C(=O)N[C@H](C(=O)N[C@@H](CC(C)C)C(=O)N[C@H](C(N)=O)[C@@H](C)O)C(C)C)C(C)C) [Ac--(SEQ ID NO: 54)--NH2]”: 0.36 nM and 2.0 µg.
